The record followed here is patent US11254661B2, “Quinoline derivatives for treating infections with helminths” (Bayer Animal Health GMBH, priority 2017, dated 2022).

pEC50: −log10 of the molar value.

For one test, the target named is C. elegans Slo-1a (Caenorhabditis elegans, UniProt Q95V25).
Test [1] concerns Dirofilaria immitis microfilariae. As to the kind of experiment: In Vitro Assay 2: Dirofilaria immitis microfilariae (DIROIM L1) motility. Conditions: 72 h.

Chain of C. elegans Slo-1a (Q95V25 whole entry): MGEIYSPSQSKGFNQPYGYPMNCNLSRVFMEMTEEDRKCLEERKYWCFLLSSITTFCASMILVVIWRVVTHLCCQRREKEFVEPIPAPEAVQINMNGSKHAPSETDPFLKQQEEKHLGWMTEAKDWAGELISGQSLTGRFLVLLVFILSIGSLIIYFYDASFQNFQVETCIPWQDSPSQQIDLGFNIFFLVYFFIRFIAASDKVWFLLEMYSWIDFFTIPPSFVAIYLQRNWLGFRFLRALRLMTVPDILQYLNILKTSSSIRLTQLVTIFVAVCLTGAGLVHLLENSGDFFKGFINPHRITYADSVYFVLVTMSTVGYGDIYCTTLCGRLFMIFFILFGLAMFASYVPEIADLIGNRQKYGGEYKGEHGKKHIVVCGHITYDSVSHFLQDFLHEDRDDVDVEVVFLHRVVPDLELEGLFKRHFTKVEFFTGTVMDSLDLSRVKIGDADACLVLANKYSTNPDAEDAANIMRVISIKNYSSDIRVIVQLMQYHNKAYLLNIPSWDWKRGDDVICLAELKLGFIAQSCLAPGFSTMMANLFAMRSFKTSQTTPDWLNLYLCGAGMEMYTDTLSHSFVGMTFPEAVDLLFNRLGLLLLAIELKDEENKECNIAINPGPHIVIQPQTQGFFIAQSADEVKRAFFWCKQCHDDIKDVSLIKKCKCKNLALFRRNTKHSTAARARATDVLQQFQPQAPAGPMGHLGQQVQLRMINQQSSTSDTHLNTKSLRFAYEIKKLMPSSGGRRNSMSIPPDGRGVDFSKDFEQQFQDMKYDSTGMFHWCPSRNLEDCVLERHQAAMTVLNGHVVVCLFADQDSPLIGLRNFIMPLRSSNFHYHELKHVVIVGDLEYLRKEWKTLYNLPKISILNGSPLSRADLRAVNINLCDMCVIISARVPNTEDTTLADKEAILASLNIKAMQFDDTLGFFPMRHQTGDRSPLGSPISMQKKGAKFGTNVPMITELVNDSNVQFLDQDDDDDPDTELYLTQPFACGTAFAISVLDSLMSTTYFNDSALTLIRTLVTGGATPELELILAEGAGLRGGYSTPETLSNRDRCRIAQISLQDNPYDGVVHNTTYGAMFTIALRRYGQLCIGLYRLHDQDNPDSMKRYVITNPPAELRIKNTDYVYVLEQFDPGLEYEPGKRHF
Protocol for C. elegans Slo-1a: In Vitro Assay 1: C. elegans Slo-1a—Action at a Recombinant C. elegans Cell Line
Cells were cultured at 37° C. and 5% CO2 in MEMalpha with Gutamax I (Invitrogen, Nr.: 32571), supplemented with 10% (v/v) heat inactivated fetal bovine serum (Invitrogen, Nr.: 10500), G418 (1 mg/ml, Invitrogen, Nr.: 10131). Cells were detached using Accutase (Sigma, Nr.: A6964).
Membrane Potential Measurements
Laboratory compound testing was performed on 384-well microtiter plates (MTPs, Greiner, Nr.: 781092). 8000 cells/well were plated onto 384-well MTPs and cultured for 20 to 24 hours at 37° C. and 5% CO2. After removal of the cell culture medium, the cells were washed once with tyrode (150 mM NaCl, 0.3 mM KCl, 2 mM CaCl2, 1 mM MgCl2, 0.8 mM NaH2PO4, 5 mM Glucose, 28 mM Hepes, pH 7.4) and then loaded with the voltage sensitive dye of the Membrane Potential Assay Kit diluted in tyrode for 1 h at room temperature.
After starting the measurement of fluorescence using a FLIPR Tetra(Molecular Devices, Exc. 510-545 nm, Emm. 565-625 nm), test compounds were added followed by the addition of KCl tyrode (final assay concentration: 70 mM KCl, 2 mM CaCl2, 1 mM MgCl2, 0.8 mM NaH2PO4, 5 mM Glucose, 28 mM Hepes, pH 7.4, including the voltage sensitive dye). The measurement was completed after 7 minutes.

As a reminder, the pEC50 is the EC50 on a negative log10 scale, so that one unit is a factor of ten. Low values mean a high EC50, high ones a low EC50. What is called EC50 is the concentration giving half of the maximal effect. Low values mean an effect from little substance, high ones a need for much substance. `O=C(N[C@H]1CCOc2ccccc21)c1cnc2c(N3CCOCC3)cccc2c1N1CCOCC1` [Example 24, N-[(4S)-3,4-dihydro-2H-chromen-4-yl]-4,8-di(morpholin-4-yl)quinoline-3-carboxamide] gave a negative-log EC50 (pEC50) on C. elegans Slo-1a of 5.30 to 6.50. The same compound showed a concentration for a half-maximal effect (EC50) in test [1] below 10 µg/mL.
For `CN(C)c1c(C(=O)N[C@H]2CCOc3ccccc32)cnc2c(C3=CCCC3)cccc12` [Example 7, (S)—N-(Chroman-4-yl)-8-(cyclopent-1-en-1-yl)-4-(dimethylamino)quinoline-3-carboxamide], the pEC50 at C. elegans Slo-1a was 7.50 to 8.50. Further, the EC50 in test [1] is below 1 µg/mL.
For `CN(C)c1c(C(=O)N[C@H]2CCOc3ccccc32)cnc2c(C3=CCNCC3)cccc12` [Example 21, (S)—N-(Chroman-4-yl)-4-(dimethylamino)-8-(1,2,3,6-tetrahydropyridin-4-yl)quinoline-3-carboxamide] the same measures were 5.30 to 6.50 and below 10 µg/mL.
For `O=C(N[C@H]1CCc2ccccc21)c1cnc2c(N3CCOCC3)c(F)ccc2c1N1CCOCC1` [Example 45, N-[(1S)-2,3-dihydro-1H-inden-1-yl]-7-fluoro-4,8-di(morpholin-4-yl)quinoline-3-carboxamide] the same measures were 6.50 to 7.50 and below 1 µg/mL.
In the case of `C[C@@H]1CN(c2cccc3c(N4CCOCC4)c(C(=O)N[C@H]4CCOc5ccccc54)cnc23)C[C@H](C)O1` [Example 31, N-[(4S)-3,4-dihydro-2H-chromen-4-yl]-8-[(2R,6S)-2,6-dimethylmorpholin-4-yl]-4-(morpholin-4-yl)quinoline-3-carboxamide], the pEC50 on C. elegans Slo-1a is 6.50 to 7.50. The 50% effective concentration (EC50) in test [1] was below 10 µg/mL.
The matching figures for `CN(C)c1c(C(=O)N[C@H]2CCOc3ccccc32)cnc2c(C3CCC(C(F)(F)F)CC3)cccc12` (stereo partly drawn) [Example 17, N—((S)-Chroman-4-yl)-4-(dimethylamino)-8-(4-(trifluoromethyl)cyclohexyl)quinoline-3-carboxamide]: 7.50 to 8.50 and below 0.1 µg/mL.
Regarding `CN(C)c1c(C(=O)N[C@H]2CCOc3ccccc32)cnc2c(C3=CCCCC3)cccc12` [Example 11, (S)—N-(Chroman-4-yl)-8-(cyclohex-1-en-1-yl)-4-(dimethylamino)quinoline-3-carboxamide], at C. elegans Slo-1a, the negative logarithm of the EC50 (pEC50) was 7.50 to 8.50. Also, in test [1], the concentration for a half-maximal effect (EC50) is below 1 µg/mL.
For `C[C@@H]1COCCN1c1cccc2c(N3CCOCC3)c(C(=O)N[C@H]3CCOc4ccccc43)cnc12` [Example 27, N-[(4S)-3,4-dihydro-2H-chromen-4-yl]-8-[(3R)-3-methylmorpholin-4-yl]-4-(morpholin-4-yl)quinoline-3-carboxamide] the same measures were 5.30 to 6.50 and below 1 µg/mL.
As for `C[C@H]1COCCN1c1cccc2c(N3CCOCC3)c(C(=O)N[C@H]3CCOc4ccccc43)cnc12` [Example 23, N-[(4S)-3,4-Dihydro-2H-chromen-4-yl]-8-[(3S)-3-methylmorpholin-4-yl]-4-(morpholin-4-yl)quinoline-3-carboxamide], the pEC50 on C. elegans Slo-1a is 5.30 to 6.50. In addition, the EC50 in test [1] is below 10 µg/mL.
For `COCCCc1cccc2c(N(C)C)c(C(=O)N[C@H]3CCOc4ccccc43)cnc12` [Example 4, (S)—N-(Chroman-4-yl)-4-(dimethylamino)-8-(3-methoxypropyl)quinoline-3-carboxamide], the negative logarithm of the EC50 (pEC50) on C. elegans Slo-1a is 5.30 to 6.50. For the same compound, the EC50 in test [1] was below 10 µg/mL.
On C. elegans Slo-1a, `CC(C)c1c(C(=O)N[C@H]2CCOc3ccccc32)cnc2c(N3CCCCC3)cccc12` [Example 35, N-[(4S)-3,4-dihydro-2H-chromen-4-yl]-8-(piperidin-1-yl)-4-(propan-2-yl)quinoline-3-carboxamide] showed a pEC50 of 6.50 to 7.50. In addition, the EC50 in test [1] was below 0.1 µg/mL.
For `CC(C)c1c(C(=O)N[C@H]2CCOc3ccccc32)cnc2c(N3C[C@H](C)C[C@H](C)C3)cccc12` [Example 36, N-[(4S)-3,4-dihydro-2H-chromen-4-yl]-8-[(3R,5S)-3,5-dimethylpiperidin-1-yl]-4-(propan-2-yl)quinoline-3-carboxamide] the same measures were 7.50 to 8.50 and below 0.1 µg/mL.
For `COCC#Cc1cccc2c(N(C)C)c(C(=O)N[C@H]3CCOc4ccccc43)cnc12` [Example 2, (S)—N-(Chroman-4-yl)-4-(dimethylamino)-8-(3-methoxyprop-1-yn-1-yl)quinoline-3-carboxamide] the same measures were 5.30 to 6.50 and below 10 µg/mL.
`CC(C)C#Cc1cccc2c(N(C)C)c(C(=O)N[C@H]3CCOc4ccccc43)cnc12` [Example 1, (S)—N-(Chroman-4-yl)-4-(dimethylamino)-8-(3-methylbut-1-yn-1-yl)quinoline-3-carboxamide] showed a pEC50 at C. elegans Slo-1a of 6.50 to 7.50. The compound further displayed an EC50 in test [1] below 10 µg/mL.
With `CC1CC(C)CN(c2c(F)ccc3c(N(C)C)c(C(=O)N[C@H]4CCc5ccccc54)cnc23)C1` (stereo partly drawn) [Example 41, N-[(1S)-2,3-dihydro-1H-inden-1-yl]-4-(dimethylamino)-8-(3,5-dimethylpiperidin-1-yl)-7-fluoroquinoline-3-carboxamide], at C. elegans Slo-1a, the pEC50 was 7.50 to 8.50. Moreover, the EC50 in test [1] was below 1 µg/mL.
The compound `CN(C)c1c(C(=O)N[C@H]2CCOc3ccccc32)cnc2c(C3COC3)cccc12` [Example 5, (S)—N-(Chroman-4-yl)-4-(dimethylamino)-8-(oxetan-3-yl)quinoline-3-carboxamide] had a negative logarithm of the EC50 (pEC50) on C. elegans Slo-1a of 5.30 to 6.50. The compound further had a concentration for a half-maximal effect (EC50) in test [1] below 10 µg/mL.
The compound `CN(C)c1c(C(=O)N[C@H]2CCc3ccccc32)cnc2c(N3CCOCC3)c(F)ccc12` [Example 47, N-[(1S)-2,3-dihydro-1H-inden-1-yl]-4-(dimethylamino)-7-fluoro-8-(morpholin-4-yl)quinoline-3-carboxamide] had a pEC50 at C. elegans Slo-1a of 5.30 to 6.50. The same compound displayed a half-maximal effective concentration (EC50) in test [1] below 10 µg/mL.
On C. elegans Slo-1a, `O=C(N[C@H]1CCOc2ccccc21)c1cnc2c(N3CCCCC3)cccc2c1N1CCOCC1` [Example 29, N-[(4S)-3,4-dihydro-2H-chromen-4-yl]-4-(morpholin-4-yl)-8-(piperidin-1-yl)quinoline-3-carboxamide] gave a pEC50 of 6.50 to 7.50. Besides, the EC50 in test [1] was below 0.1 µg/mL.
For `C=C(C)c1cccc2c(N(C)C)c(C(=O)N[C@H]3CCOc4ccccc43)cnc12` [Example 9, (S)—N-(Chroman-4-yl)-4-(dimethylamino)-8-(prop-1-en-2-yl)quinoline-3-carboxamide] the same measures were 6.50 to 7.50 and below 1 µg/mL.
Take `CC(=O)Nc1cccc2c(N3CCOCC3)c(C(=O)N[C@H]3CCOc4ccccc43)cnc12` [Example 28, 8-(acetylamino)-N-[(4S)-3,4-dihydro-2H-chromen-4-yl]-4-(morpholin-4-yl)quinoline-3-carboxamide]: the pEC50 on C. elegans Slo-1a was 5.30 to 6.50. Also, the EC50 in test [1] was below 10 µg/mL.
As for `O=C(N[C@H]1CCOc2ccccc21)c1cnc2c(NC3CCCCC3)cccc2c1N1CCOCC1` [Example 25, 8-(cyclohexylamino)-N-[(4S)-3,4-dihydro-2H-chromen-4-yl]-4-(morpholin-4-yl)quinoline-3-carboxamide], the pEC50 at C. elegans Slo-1a was 7.50 to 8.50. The concentration for a half-maximal effect (EC50) in test [1] was below 10 µg/mL.
As to `CC(C)(C)OC(=O)Nc1cccc2c(N3CCOCC3)c(C(=O)N[C@H]3CCOc4ccccc43)cnc12` [Example 26, tert-butyl {3-[(4S)-3,4-dihydro-2H-chromen-4-ylcarbamoyl]-4-(morpholin-4-yl)quinolin-8-yl}carbamate], the pEC50 at C. elegans Slo-1a was 7.50 to 8.50. Further, in test [1], the concentration for a half-maximal effect (EC50) is below 0.1 µg/mL.
The matching figures for `CN(C)c1c(C(=O)N[C@H]2CCOc3ccccc32)cnc2c(C3CN(C(=O)OC(C)(C)C)C3)cccc12` [Example 20, tert-Butyl(S)-3-(3-(chroman-4-ylcarbamoyl)-4-(dimethylamino)quinolin-8-yl)azetidine-1-carboxylate]: 5.30 to 6.50 and below 10 µg/mL.
`CN(C)c1c(C(=O)N[C@H]2CCOc3ccccc32)cnc2c(C3CCCCC3)cccc12` [Example 12, (S)—N-(Chroman-4-yl)-8-cyclohexyl-4-(dimethylamino)quinoline-3-carboxamide] showed a pEC50 on C. elegans Slo-1a of 7.50 to 8.50. The concentration for a half-maximal effect (EC50) in test [1] is below 0.1 µg/mL.
As for `CN(C)c1c(C(=O)N[C@H]2CCc3ccccc32)cnc2c(N3CCC(F)(F)CC3)c(F)ccc12` [Example 39, 8-(4,4-difluoropiperidin-1-yl)-N-[(1S)-2,3-dihydro-1H-inden-1-yl]-4-(dimethylamino)-7-fluoroquinoline-3-carboxamide], the negative logarithm of the EC50 (pEC50) on C. elegans Slo-1a was 7.50 to 8.50. Further, in test [1], the concentration giving a half-maximal response (EC50) is below 1 µg/mL.
Turning to `O=C(N[C@H]1CCc2ccccc21)c1cnc2c(N3CCCC3)c(F)ccc2c1N1CCOCC1` [Example 48, N-[(1S)-2,3-dihydro-1H-inden-1-yl]-7-fluoro-4-(morpholin-4-yl)-8-(pyrrolidin-1-yl)quinoline-3-carboxamide], the negative-log EC50 (pEC50) on C. elegans Slo-1a is 7.50 to 8.50. In test [1], the concentration for a half-maximal effect (EC50) was below 1 µg/mL.
Compound `CN(C)c1c(C(=O)N[C@H]2CCOc3ccccc32)cnc2c(C3=CCCCCC3)cccc12` [Example 14, (S)—N-(Chroman-4-yl)-8-(cyclohept-1-en-1-yl)-4-(dimethylamino)quinoline-3-carboxamide] showed a pEC50 at C. elegans Slo-1a of 7.50 to 8.50. The concentration giving a half-maximal response (EC50) in test [1] was below 0.1 µg/mL.
For `CN(C)c1c(C(=O)N[C@H]2CCOc3ccccc32)cnc2c(C3CCC(C)(C)CC3)cccc12` [Example 19, (S)—N-(Chroman-4-yl)-4-(dimethylamino)-8-(4,4-dimethylcyclohexyl)quinoline-3-carboxamide] the same measures were 6.50 to 7.50 and below 1 µg/mL.
On to `CN(C)c1c(C(=O)N[C@H]2CCOc3ccccc32)cnc2c(C3CCCC3)cccc12` [Example 8, (S)—N-(Chroman-4-yl)-8-cyclopentyl-4-(dimethylamino)quinoline-3-carboxamide], for which the pEC50 at C. elegans Slo-1a is above 8.50. In addition, in test [1], the EC50 is below 0.1 µg/mL.
The matching figures for `CC(C)c1cccc2c(N(C)C)c(C(=O)N[C@H]3CCOc4ccccc43)cnc12` [Example 10, (S)—N-(Chroman-4-yl)-4-(dimethylamino)-8-isopropylquinoline-3-carboxamide]: 6.50 to 7.50 and below 1 µg/mL.
For `CN(C)c1c(C(=O)N[C@H]2CCOc3ccccc32)cnc2c(C3CCOCC3)cccc12` [Example 6, (S)—N-(Chroman-4-yl)-4-(dimethylamino)-8-(tetrahydro-2H-pyran-4-yl)quinoline-3-carboxamide] the same measures were 6.50 to 7.50 and below 1 µg/mL.
